Measurements as given in patent EP2108954A1, “A test system for detecting intracellular cyclic nucleotide level and methods and uses thereof” (Max-Planck-Gesellschaft zur Förderung der Wissenschaften …, priority 2008, dated 2009).
Entries after “also recorded” stand apart in the source; their conditions may differ.

Key:
Or22a and Or83b = target: T1, Or22a and Or83b (Drosophila melanogaster, UniProt P81909+Q9VNB5); assay: Outside-out patch recording from HEK293 cells coexpressing Or22a and Or83b; format: cell-based; details: Etb 100 nM, 1 s, -60 mV; for Ii Peak size / Ii Peak time / Ii Recov. / Im Latency / Im Peak size / Im Peak time / Im Recov.: Or22a C-terminal GFP fusion protein
T1 construct: expressed in transfected cells; host or cells: HEK293
T1 sequence (P81909 1-397): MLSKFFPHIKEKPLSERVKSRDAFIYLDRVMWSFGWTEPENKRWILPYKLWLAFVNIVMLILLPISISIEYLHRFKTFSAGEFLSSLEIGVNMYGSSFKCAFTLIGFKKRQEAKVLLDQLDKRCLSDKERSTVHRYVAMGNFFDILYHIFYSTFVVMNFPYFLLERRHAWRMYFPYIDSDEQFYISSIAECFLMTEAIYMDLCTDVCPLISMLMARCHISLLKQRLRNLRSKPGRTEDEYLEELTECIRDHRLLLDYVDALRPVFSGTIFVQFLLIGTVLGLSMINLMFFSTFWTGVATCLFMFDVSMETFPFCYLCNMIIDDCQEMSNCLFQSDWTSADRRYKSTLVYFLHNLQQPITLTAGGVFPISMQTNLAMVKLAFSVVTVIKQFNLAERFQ
T1 sequence (Q9VNB5 1-486): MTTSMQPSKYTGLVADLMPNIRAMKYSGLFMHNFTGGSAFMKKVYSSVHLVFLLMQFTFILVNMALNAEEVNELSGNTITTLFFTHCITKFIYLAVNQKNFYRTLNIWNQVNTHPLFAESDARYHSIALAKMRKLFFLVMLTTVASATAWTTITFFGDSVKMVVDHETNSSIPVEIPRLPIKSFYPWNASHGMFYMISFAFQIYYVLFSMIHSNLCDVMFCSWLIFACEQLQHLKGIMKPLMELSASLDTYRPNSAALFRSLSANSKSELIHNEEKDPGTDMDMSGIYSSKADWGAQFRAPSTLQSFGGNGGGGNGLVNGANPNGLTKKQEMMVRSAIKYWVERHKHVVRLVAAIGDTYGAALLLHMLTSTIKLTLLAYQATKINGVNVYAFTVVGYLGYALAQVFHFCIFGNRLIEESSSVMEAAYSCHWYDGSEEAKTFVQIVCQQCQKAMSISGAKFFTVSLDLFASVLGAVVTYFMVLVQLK
Method: (§1) HEK293 cells were cultured as described by Wicher and colleagues (Wicher et al., J. Biol. Chem. 281, 3227-36 (2006)). In brief, HEK293 cells were cultured at a density of ∼2*10^4 per 35-mm dish and transfected with 1 µg pcDNA3-DOR22a-GFP and 1 µg pcDNA3-DOR83b-GFP (Neuhaus, et al., Nat. Neurosci. 8, 15-17 (2005); DNAs were a generous gift of Dr. E. Neuhaus and Dr. H. Hatt) using Roti-Fect transfection kit (Roth, Karlsruhe, Germany). In some experiments we transfected cells with pcDNA3-DOR22a-GFP or pcDNA3-DOR83b-GFP alone. We also examined the properties of DOR47a, which was cloned, using standard molecular biology methods into a pcDNA3.1(-) expression vector. To test for putative G-protein coupling, cells were transfected with the respective OR-DNA together with 1.5 µg hHCN2/pcDNA3 (provided by M. Biel, Munich, Germany), with 1 µg hKCNQ4/pcDNA3.1 or with 1 µg hCNGA2/pCMV6-XL4 (Origene, Rockville, MD, USA).
Ion currents in HEK293 cells were measured with the patch-clamp technology as described (Wicher et al, J. Biol. Chem. 281, 3227-36 (2006)). In brief, ion currents in HEK293 cells were measured at room temperature using whole-cell patch-clamp with appropriate compensation of series resistance and of capacitive currents. Additional experiments were performed in the outside-out configuration. Current measurements and data acquisition were performed using an EPC9 patch-clamp amplifier controlled by PatchMaster software (both HEKA Elektronik, Lambrecht, Germany). Patch-clamp pipettes were fabricated from borosilicate capillaries. Pipettes for whole-cell recordings had resistances of 2-4 MΩ for excised-patch recordings the pipette resistance was up to 15 MΩ.
The standard pipette solution contained (in mM) 140 KCl, 4 NaCl, 2.2 CaCl2, 2 Mg-ATP, 0.05 Na-GTP, 5 EGTA, 10 HEPES (pH 7.3), and the standard bath solution contained (in mM) 135 NaCl, 5 KCI, 1 CaCl2, 1 MgCl2, 10 HEPES, 10 glucose (pH 7.4). To differentiate between ionotropic and metabotropic pathways of receptor activation (Fig. 2a-d) the pipette solution contained either 2 mM ATP plus 2 mM GTP or 2 mM ADP plus 2 mM GDP (both for whole-cell and outside-out configuration). For the preparation of Cl^--free solutions the chloride salts were substituted by gluconate salts. The pipette Cs^+ solution contained (in mM) 140 CsCl, 1 Mg-ATP, 10 EGTA, 10 HEPES (pH = 7.3), and the Cs^+ bath solution contained (in mM) 140 CsCl, 15 glucose, 15 HEPES (pH = 7.4). The Ca^2+-free bath solution contained (in mM) 140 NaCl, 15 glucose, 15 HEPES, and the Na^+-free bath solution contained (in mM) 140 NMDG-Cl, 10 CaCl2, 10 glucose, 15 HEPES.
With the exception of GDP-γ-S, which was applied via the patch pipette, all substances were applied to the bath using either a bath perfusion system (BPS4 from ALA, New York, USA) or a rapid solution changer (RSC160 from Biologic, Claix, France) which were controlled by the PatchMaster software (HEKA Elektronik).

hKCNQ4 = assay: Gq coupling test: KCNQ4 current in HEK293 cells coexpressing Or22a, Or83b and hKCNQ4; format: cell-based, human; details: increasing Etb concentrations; +40 mV
Method: as §1
(§2) Ion currents in HEK293 cells were measured with the patch-clamp technology as described (Wicher et al, J. Biol. Chem. 281, 3227-36 (2006)). In brief, ion currents in HEK293 cells were measured at room temperature using whole-cell patch-clamp with appropriate compensation of series resistance and of capacitive currents. Additional experiments were performed in the outside-out configuration. […]

hHCN2 = assay: Gs coupling test: hHCN2 current in HEK293 cells coexpressing ORs and hHCN2; format: cell-based, human; details: 2 min 100 nM Etb; Or22a, Or83b and hHCN2 coexpressed
Method: as §1, §2

Or22a = target: T2, Or22a (Drosophila melanogaster, UniProt P81909); assay: Whole-cell patch-clamp of HEK293 cells expressing Or22a alone; format: cell-based; details: HEK293 cells transfected with Or22a alone, -60 mV, n = 6
T2 construct: expressed in transfected cells; host or cells: HEK293
T2 sequence (P81909 1-397): T1 sequence (P81909 1-397)
Method: as §1, §2

CCCC(=O)OCC [Etb, ethyl butyrate]
latency of Ii (Or22a and Or83b): < 0.5 s
Ii Peak size (Or22a and Or83b; ADP and GDP (-)): 1.6 ± 0.3 pA
Ii Peak time (Or22a and Or83b; ADP and GDP (-)): 1.38 ± 0.23 s
Ii Recov. (Or22a and Or83b; ADP and GDP (-)): 4.5 ± 1.2 s
Im Latency (Or22a and Or83b; ADP and GDP (-)): 11 ± 3 s
Im Peak size (Or22a and Or83b; ADP and GDP (-)): 0.5 ± 0.2 pA
Im Peak time (Or22a and Or83b; ADP and GDP (-)): 36 ± 8 s
Im Recov. (Or22a and Or83b; ADP and GDP (-)): 58 ± 9 s
Ii Peak size (Or22a and Or83b; ATP and GTP (+)): 1.3 ± 0.3 pA
Ii Peak time (Or22a and Or83b; ATP and GTP (+)): 1.13 ± 0.11 s
Ii Recov. (Or22a and Or83b; ATP and GTP (+)): 5.2 ± 1.1 s
Im Latency (Or22a and Or83b; ATP and GTP (+)): 10 ± 2 s
Im Peak size (Or22a and Or83b; ATP and GTP (+)): 1.7 ± 0.4 pA
Im Peak time (Or22a and Or83b; ATP and GTP (+)): 33 ± 4 s
Im Recov. (Or22a and Or83b; ATP and GTP (+)): 45 ± 7 s
effect on KCNQ4 current (hKCNQ4): remains unaffected; also recorded: had no effect
effect on hHCN2 current time course (hHCN2): accelerated the current time course
inward current upon short Etb application (Or22a): no current was observed
